{
  "source": "patent US8703424B2",
  "about": "“Predicting human developmental toxicity of pharmaceuticals using human stem-like cells and metabolomics” (Stemina Biomarker Discovery, Inc., priority 2010, dated 2014)",
  "key": {"[1]": {"tested_on": "WA09 human embryonic stem (hES) cells", "assay": "PLS-DA prediction of teratogenicity from secretome of treated hES cells (Example 9)", "source_text": "These included 11 known teratogens and 11 known non-teratogens. The current model is based on the mean fold change (treatment versus its associated intra-experimental control) of 15 metabolites common among the secretome of hES cells treated with pharmaceutical agents and unknown chemical compounds."}, "[2]": {"tested_on": "WA09 hES cells", "assay": "Metabolomics of hES cells dosed in 96-well plates at three dose levels (Example 8)", "assay_type": "cell-based, human", "method": "For metabolomic analysis, hES cells were dosed at the three concentrations for each chemical compound based on the cell viability data. Media controls (no cells), dosed media controls (no cells with dosed media), and controls (cells with undosed media) were also included in the experimental design (FIG. 1). Spent media was collected following a three day dosing period. The collected media was immediately quenched in acetonitrile then stored at −80° C. until later analysis.\nIn both the viability and metabolomics steps, 96-well plates were seeded with 250,000 cells/well of WA09 hES cells. These cells were “dosed” for three days. Each day for three days, the spent media was removed and replaced with […] media containing the designated compound. Each compound stock solution was made in DMSO and each final solution used to dose hES cells contained 0.1% DMSO. […]\nSamples were analyzed in both ESI positive and ESI negative modes on an Agilent QTOF instrument, operated in high resolution, extended dynamic range mode. […]\nPeak picking and feature creation were performed using the open source software library XCMS. Mass features (peaks) were detected using the centwave algorithm. […]\nThis filter selects against spurious low abundance features at the level of detection that are not reproducibly measured, and features that may not have peak shapes amenable to reproducible detection and/or integration. […]"}, "[3]": {"conditions": "DevTox pharmaceutical, high dose (H = 10x circulating dose)"}, "[4]": {"conditions": "DevTox pharmaceutical, low dose (L = 0.1x circulating dose)"}, "[5]": {"conditions": "EPA compounds, high dose level (H)"}, "[6]": {"conditions": "EPA compounds, low dose level (L)"}, "[7]": {"conditions": "EPA compounds, medium dose level (M)"}},
  "data": [
    {"smiles": "CN(C)CCOC(C)(c1ccccc1)c1ccccn1", "note": "(stereo not drawn) [Doxylamine]", "values": [
      {"measurement": "PLS-DA classification", "setting": "[1]; 0.38 μM", "value": "not classified as a teratogen"},
      {"measurement": "% Non (PLS-DA class probability non-teratogen)", "setting": "[1]; [3]", "value": 0.38},
      {"measurement": "% Ter (PLS-DA class probability teratogen)", "setting": "[1]; [3]", "value": 0.62},
      {"measurement": "Confidence (difference between class probabilities)", "setting": "[1]; [3]", "value": 0.24},
      {"measurement": "Prediction", "setting": "[1]; [3]", "value": "Ter"},
      {"measurement": "% Non (PLS-DA class probability non-teratogen)", "setting": "[1]; [4]", "value": 0.58},
      {"measurement": "% Ter (PLS-DA class probability teratogen)", "setting": "[1]; [4]", "value": 0.42},
      {"measurement": "Confidence (difference between class probabilities)", "setting": "[1]; [4]", "value": 0.16},
      {"measurement": "Prediction", "setting": "[1]; [4]", "value": "Non"},
      {"measurement": "% Non (PLS-DA generated class probability)", "setting": "[1]; [5]", "value": 0.45},
      {"measurement": "% Ter (PLS-DA generated class probability)", "setting": "[1]; [5]", "value": 0.55},
      {"measurement": "Prediction", "setting": "[1]; [5]", "value": "Ter"},
      {"measurement": "Confidence (difference between class probabilities)", "setting": "[1]; EPA compounds, high dose level (H), values less than 0.1 inconclusive", "value": 0.1},
      {"measurement": "% Non (PLS-DA generated class probability)", "setting": "[1]; [6]", "value": 0.41},
      {"measurement": "% Ter (PLS-DA generated class probability)", "setting": "[1]; [6]", "value": 0.59},
      {"measurement": "Prediction", "setting": "[1]; [6]", "value": "Ter"},
      {"measurement": "Confidence (difference between class probabilities)", "setting": "[1]; EPA compounds, low dose level (L), values less than 0.1 inconclusive", "value": 0.18},
      {"measurement": "% Non (PLS-DA generated class probability)", "setting": "[1]; [7]", "value": 0.44},
      {"measurement": "% Ter (PLS-DA generated class probability)", "setting": "[1]; [7]", "value": 0.56},
      {"measurement": "Prediction", "setting": "[1]; [7]", "value": "Ter"},
      {"measurement": "Confidence (difference between class probabilities)", "setting": "[1]; EPA compounds, medium dose level (M), values less than 0.1 inconclusive", "value": 0.12},
      {"measurement": "Teratogenicity Classification", "setting": "[1]; [Doxylamine] 0.038 μm, devTox low", "value": "Non"},
      {"measurement": "Teratogenicity Classification", "setting": "[1]; [Doxylamine] 0.38 μm, devTox medium", "value": "Non"},
      {"measurement": "Teratogenicity Classification", "setting": "[1]; [Doxylamine] 1 μm, EPA low", "value": "Ter"},
      {"measurement": "Teratogenicity Classification", "setting": "[1]; [Doxylamine] 3.8 μm, devTox high", "value": "Ter"},
      {"measurement": "Teratogenicity Classification", "setting": "[1]; [Doxylamine] 10 μm, EPA medium", "value": "Ter"},
      {"measurement": "Teratogenicity Classification", "setting": "[1]; [Doxylamine] 100 μm, EPA high", "value": "Ter"},
      {"measurement": "PLS-DA classification, these studies (EPA set)", "setting": "[1]; all three concentrations (low, medium, and high)", "value": "teratogen"},
      {"measurement": "PLS-DA classification, developmental toxicity assay (Table 11)", "setting": "[1]; high concentration", "value": "teratogen"},
      {"measurement": "PLS-DA classification, developmental toxicity assay (Table 11)", "setting": "[1]; low and medium dose", "value": "non-teratogen"},
      {"measurement": "PLS-DA classification of EPA-provided chemical agents", "setting": "[1]; overall conclusion", "value": "potential teratogens"},
      {"measurement": "Dimethylarginine (DMA) change", "setting": "[2]; at least two dose levels", "value": "increased secretion"},
      {"measurement": "Malic acid change", "setting": "[2]; high dose levels", "value": "extreme fold changes"}
    ]}
  ]
}
